Measured values taken from US10159717B2, “Methods of treating cancer of the central nervous system” (Yeda Research and Development Co. Ltd., priority 2008, dated 2018).

What was measured:
[1] = Stability of oxaloacetate solutions; type: physicochemical; conditions: cell culture medium
Description: To test the effect of oxaloacetate (OA) on glioma cells in vitro, C6 glioma cells were incubated with 1 mM oxaloacetate. Since oxaloacetate solutions are unstable, the cell culture medium was changed every day to allow the cells to be daily exposed to a fresh oxaloacetate solution.

C6 glioma = C6 glioma implanted in rat striatum, tumor growth followed by MRI; type: in vivo; conditions: 0.2M oxaloacetate in drinking water from day 7, MRI 10 days later, in average
Description: Male SPD&OLD rats weighing 260-280 g were used and placed in individual cages. All experiments were conducted according to the guidelines of the institutional animal care and use committee of the Weizmann Institute of Science, Rehovot, Israel.
Rat C6 glioma cells were grown in DMEM medium supplemented with 10% FCS. 10^7 cells were plated on 100×20 mm dishes and grown to 80% confluence for two days, passaged at a dilution of 1:10 after 1-2 min exposure to 0.25% trypsin and plated on 7 plates 60×15 mm. The cells were grown to 80% confluence for two additional days. The cells were then trypsynized as above, washed once with sterile PBS and centrifuged for 15 min at 1200 rpm. Prior to centrifugation, the cells were counted in a hemocytometer. Following centrifugation, the medium was removed and the cells were diluted in sterile PBS to a final concentration […] was injected immediately intracranially. For that purpose, the rats were anesthetized with 1.5% Halothane and placed in a stereotactic apparatus. […]
Experiments on live animals were conducted on a Bio spec Avance™ system (Bruker Biospin, Ettlingen, Germany) with a 4.7 T 30-cm horizontal bore magnet. […] The volume of the tumor was assessed using the Surdriver program.
After establishing that oxaloacetate has no effect on glioma growth when grown under in vitro conditions, the effect of same in vivo was determined. […]

**Q.** For O=C(O)CC(=O)C(=O)O [oxaloacetate], which stability of solutions [1] is on record?
**A.** unstable

**Q.** And the “Tumor spread, less than that of untreated animals that received drinking water only” value (C6 glioma)?
**A.** at least 10 folds
